Experimental data published in patent US20120202892A1, “Cannabinoid-Containing Compositions and Methods for Their Use” (University of Kentucky Research Foundation, priority 2008, published 2012).
Where “and” joins values, the source holds several entries; their conditions need not be identical. Identical values can stand only once. Entries after “also recorded” stand apart in the source; their conditions may differ. Like-named read-outs stand apart in the source and are kept apart here. Marks after values point to notes of the source that are not given here.

Tests used:
[1] = system: CFA-induced knee joint inflammation; experiment: Knee joint circumference in CFA mono-arthritic rats; format: in vivo, Sprague-Dawley rats
[2] = system: CFA-induced knee joint inflammation; experiment: Knee joint temperature in CFA mono-arthritic rats; format: in vivo, Sprague-Dawley rats
[3] = system: CFA-induced mono-arthritis pain; experiment: Pain-related posture (spontaneous pain rating score 0-5); format: in vivo, Sprague-Dawley rats; settings: after CFA, before CBD gel
Excerpt: The abnormal posture of the affected hind limb of each animal was assigned a single score using a subjective pain-related behavioral scale (spontaneous pain rating score 0-5), i.e. 0—normal; 1—curling of the toes, 2—eversion of the paw; 3—partial weight bearing; 4—non-weight bearing and guarding; and 5—avoidance of any contact with the hindlimb (Sluka et al. (1994) Neuroreport 5:109-112).
Baseline parameters (body weight, knee joint temperature, and knee joint circumference) were obtained before the knee injection of rats with CFA. PWL test and exploratory activity testing were also conducted prior to CFA injection. Rats were anesthetized with a short term anesthetic and the left knee joint, cavity was injected with CFA for induction of mono-arthritis. On day 3, the back of each animal was shaved. […] Rats received daily treatments for four consecutive days of either vehicle gel, or CBD gel. Gel was applied to the skin in a templated region on the dorsal surface of the rat and rubbed into the skin for 30 sec to ensure complete coverage. The nitrile template was used to ensure specific area reproducibility. […] Exploratory activity was monitored prior to initial gel application and on the third day post gel application (after 6 h). […] Blood samples were obtained for CBD plasma quantification, and tissues (knee joints, dorsal root ganglia, spinal cord, brain) were collected after perfusion. […]

[4] = system: CFA-induced mono-arthritis, secondary thermal hyperalgesia; experiment: Secondary thermal hyperalgesia, paw withdrawal latency (PWL) test; format: in vivo, Sprague-Dawley rats; settings: for Paw withdrawal latency (PWL), own baseline score: baseline before CFA and CBD
Method: Secondary thermal hyperalgesia was assessed with the paw withdrawal latency (PWL) test (Hargreaves et al. (1988) Pain 32: 77-88). PWLs were measured in response to a radiant heat source shone on one hind paw of the animals from beneath a glass top table. A shortened PWL response in animals with knee joint inflammation was indicative of secondary thermal hyperalgesia. Animals were placed in separate plastic cubicles (4×4×10 in) on a glass top table (2 mm thickness of glass) and allowed to adapt to their new environment for 20-30 min before testing. A small movable metal box that focused a high-intensity light beam through an aperture (0.5 cm×0.5 cm) was attached to an on/off switch and a digital timer. The light beam was applied to the plantar surface of the hind paw through the glass until the rat lifted its paw. At that time, the light is switched off and the number of seconds on the digital timer recorded as the PWL (sec). The maximal cut off time for the paw-withdrawal reflex was set to 15 sec (55° C.). […] Both hind paws were tested independently for 5 trials per side with 5-minute intervals between trials. A mean of the 5 trials was calculated for each animal. The PWL tests were performed before knee joint injection as a baseline and 5 times after the CFA injection beginning on day 3 (days 3-7). The examiner was blind from the treatment group of animals.
(§1) Baseline parameters (body weight, knee joint temperature, and knee joint circumference) were obtained before the knee injection of rats with CFA. PWL test and exploratory activity testing were also conducted prior to CFA injection. Rats were anesthetized with a short term anesthetic and the left knee joint, cavity was injected with CFA for induction of mono-arthritis. On day 3, the back of each animal was shaved. […] Rats received daily treatments for four consecutive days of either vehicle gel, or CBD gel. Gel was applied to the skin in a templated region on the dorsal surface of the rat and rubbed into the skin for 30 sec to ensure complete coverage. The nitrile template was used to ensure specific area reproducibility. The PWL test was conducted 4 h after gel application. Exploratory activity was monitored prior to initial gel application and on the third day post gel application (after 6 h). On the final day of gel application after the body and knee joint parameters were obtained and PWL test was conducted, rats were cuthanized by pentobarbital overdose. Blood samples were obtained for CBD plasma quantification, and tissues (knee joints, dorsal root ganglia, spinal cord, brain) were collected after perfusion.
Half of the treated rats were injected with the CFA in the knee joint. Within each group of rats, half received vehicle gel without CBD and the other half received the gel CBD. Four different doses were tested in the rats, 0.6 mg/d, 3.1 mg/d, 6.2 mg/d, or 62.3 mg/d. […] A two-fold lower dose and a ten-fold lower/higher dose (3.1 mg/d, 0.6 mg/d, and 62.3 mg/d) were also investigated. Area of application, amount of gel, and/or concentration of gel was adjusted to achieve the desired doses.

normal (non-CFA) rats = experiment: Open field exploratory behavioral activity; format: in vivo, Sprague-Dawley rats
Method: Exploratory behavioral activity of the rats was monitored using the Flexfield Animal Activity System (San Diego Instruments; San Diego, Calif.) with a Photobeam Activity System software coupled to a computer according to previously published methods by Zhang et al., (2004) Pharmacol Biochem Behav 77: 145-153. Briefly, six main parameters were recorded: rearing events and rearing time, active time, and resting time, total activity (i.e. number of photobeams disturbed in the x-y-z planes while the rat was moving around in the box or involved in stationary movement such as grooming), and distance traveled. Activity testing was conducted in an isolated, temperature controlled area at similar times daily in order to provide consistent results.
as §1

[5] = Plasma CBD concentration after topical gel application (LC/MS); format: in vivo, Sprague-Dawley rats; settings: rats
Method: as §1
50 μL aliquot of plasma collected from cannabidiol dosed rats was added to a siliconized microcentrifuge tube containing 500 μL of 1:1 ACN:ethyl acetate. The plasma/ACN:ethyl acetate sample was vortexed for 30 sec and centrifuged at 10,000×g for 20 min. The supernatant was removed and placed into a clean silanized culture tube and evaporated under nitrogen in a 37° C. water bath. The dried sample was reconstituted with 100 μL of ACN and vortexed for 30 sec, then sonicated for 5 min. […] Standards were prepared by spiking blank plasma samples with respective standard concentrations and extracting the standards similarly to the collected plasma samples.
The LC/MS system used to analyze samples was comprised of a Waters Alliance 2695 pump and autosampler, a Micromass™ ZQ detector, and 996 photodiode array detector with MassLynx™ software (Waters Corp., Milford, Mass.). A Symmetry™ C18 column (150×2.1 mm, 5 μm) with a Sentry Symmetry™ guard column (10×2.1 mm, 3.5 μm) was used with the LC/MS system. The ZQ detector was used with an electrospray ionization (ESI) probe set for single ion monitoring (SIM) for cannabidiol quantification. Analysis was performed in negative mode for m/z 313 [CBD-H]^− (dwell time: 30 sec). Capillary and cone voltage were set at […] and 40 V, respectively. Source block and desolvation temperatures were set at 120° C. and 250° C., respectively. Nitrogen produced from the Nitroflow Lab (Parker Hannifin Corp; Cleveland, Ohio) was used as nebulization and drying gas flow rates of 50 and 450 L/h, respectively. […]

CB2 receptor = CB2 receptor (Homo sapiens, UniProt P34972); settings: cited from earlier work
Chain of CB2 receptor (P34972 whole entry): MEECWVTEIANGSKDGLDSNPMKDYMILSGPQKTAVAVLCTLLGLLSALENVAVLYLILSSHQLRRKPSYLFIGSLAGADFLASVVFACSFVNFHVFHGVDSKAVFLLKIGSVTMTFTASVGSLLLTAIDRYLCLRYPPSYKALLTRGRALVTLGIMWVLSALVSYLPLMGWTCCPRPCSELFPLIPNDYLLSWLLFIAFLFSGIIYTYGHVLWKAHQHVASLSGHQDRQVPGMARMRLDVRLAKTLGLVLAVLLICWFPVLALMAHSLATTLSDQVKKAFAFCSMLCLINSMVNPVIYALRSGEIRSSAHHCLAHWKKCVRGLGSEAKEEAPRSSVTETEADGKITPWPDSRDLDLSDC

[6] = system: collagen-induced arthritis; settings: mice, cited from earlier work
[7] = system: CFA intraplantar injection; settings: rats, 20 mg/kg oral, 7 consecutive days; cited from earlier work
[8] = system: carrageenan-induced paw edema; settings: cited from earlier work
[9] = in vivo; cited from earlier work
[10] = 0.6 mg/d group, after CFA, before CBD gel
[11] = 3.1 mg/d group, after CFA, before CBD gel
[12] = 3.1 mg/d transdermal CBD gel, Post-CBD, day 4
[13] = 6.2 mg/d group, after CFA, before CBD gel
[14] = 62.3 mg/d group, after CFA, before CBD gel
[15] = CFA + CBD group, baseline before CFA and before CBD

SMILES: C=C(C)C1CCC(C)=CC1c1c(O)cc(CCCCC)cc1O (stereo not drawn) [CBD, 2-[3-methyl-6-(1-methylethenyl)-2-cyclohexen-1-yl]-5-pentyl-1,3-benzenedi-ol]
- Knee joint circumference [mean ± SD] [1, 10]: 7.5 ± 0.3^b cm
- Knee joint circumference [mean ± SD] ([1]; 0.6 mg/d transdermal CBD gel, Post-CBD, four consecutive days (day 4)): 7.0 ± 0.3^b cm
- Knee joint circumference [mean ± SD] [1, 11]: 7.4 ± 0.4^b cm
- Knee joint circumference [mean ± SD] [1, 12]: 7.1 ± 0.3^b cm
- Knee joint circumference [mean ± SD] [1, 13]: 7.2 ± 0.3^b cm
- Knee joint circumference [mean ± SD] ([1]; 6.2 mg/d transdermal CBD gel, Post-CBD, day 4, p<0.05 vs vehicle gel): 6.6±0.2 cm and 6.6 ± 0.2^b* cm
- Knee joint circumference [mean ± SD] [1, 14]: 7.2 ± 0.0^a cm
- Knee joint circumference [mean ± SD] ([1]; 62.3 mg/d transdermal CBD gel, Post-CBD, day 4, p<0.05 vs vehicle gel): 6.6±0.1 cm and 6.6 ± 0.1^a* cm
- Knee joint circumference [mean ± SD] [1, 15]: 5.7±0.2 cm and 5.7 ± 0.2^c cm
- Optimal treatment dose for knee inflammation ([1]; transdermal gel, no further improvement with 62.3 mg/d): 6.2 mg/day
- Knee joint temperature [mean ± SD] [2, 10]: 31.7 ± 1.7^b ° C.
- Knee joint temperature [mean ± SD] ([2]; 0.6 mg/d transdermal CBD gel, Post-CBD, day 4): 31.2 ± 0.7^b ° C.
- Knee joint temperature [mean ± SD] [2, 11]: 30.8 ± 0.9^b ° C.
- Knee joint temperature [mean ± SD] [2, 12]: 30.6 ± 0.6^b ° C.
- Knee joint temperature [mean ± SD] [2, 13]: 32.1 ± 1.8^b ° C.
- Knee joint temperature [mean ± SD] ([2]; 6.2 mg/d transdermal CBD gel, Post-CBD, day 4): 31.7 ± 2.1^b ° C.
- Knee joint temperature [mean ± SD] [2, 14]: 34.1 ± 0.8^a ° C.
- Knee joint temperature [mean ± SD] ([2]; 62.3 mg/d transdermal CBD gel, Post-CBD, day 4): 30.2 ± 0.9^a ° C.
- Difference in knee joint temperature among the treatment groups ([2]; CBD gel doses vs vehicle gel, p>0.05): No knee joint temperature differences; also recorded: no significant differences
- Knee joint temperature [mean ± SD] [2, 15]: 33.4 ± 0.2^a ° C.
- Spontaneous pain rating scores [mean ± SD] ([3]; 0.6 mg/d group): 4.0 ± 0.0^b
- Spontaneous pain rating scores [mean ± SD] ([3]; 3.1 mg/d group): 4.0 ± 0.0^b
- Paw withdrawal latency (PWL), own baseline score ([4]; 6.2 mg/d group): 10.9 ± 0.3 s
- Paw withdrawal latency (PWL), own baseline score ([4]; 62.3 mg/d group): 9.3 ± 0.3 s
- Paw withdrawal latency (PWL) ([4]; CFA rats, 0.6 mg/d CBD gel, day 2 of application, 4 h after application): 7.8 ± 0.5 s
- Improvement of PWL scores ([4]; CFA rats, 0.6 mg/d and 3.1 mg/d CBD, day 4): did not have improved PWL scores
- Paw withdrawal latency (PWL) ([4]; CFA rats, 3.1 mg/d CBD gel, day 2 of application): 7.6 ± 0.8 s
- Paw withdrawal latency (PWL) ([4]; CFA rats, 6.2 mg/d CBD gel, day 2 of application, p<0.05 vs vehicle gel): 9.2 ± 0.7 s
- Paw withdrawal latency (PWL) ([4]; CFA rats, 6.2 mg/d CBD gel, day 4): 9.2 ± 0.3 s
- Change in PWL vs CFA rats receiving vehicle gel ([4]; CFA rats, 6.2 mg/d, 4 h (d 1) post CBD dosing, p<0.05): improvement
- Paw withdrawal latency (PWL) ([4]; CFA rats, 62.3 mg/d CBD gel, day 2 of application, p<0.05 vs vehicle gel): 9.1 ± 0.2 s
- Paw withdrawal latency (PWL) ([4]; CFA rats, 62.3 mg/d CBD gel, day 4): 9.3 ± 0.2 s
- Paw withdrawal latency (PWL) ([4]; normal controls, 6.2 mg/d CBD gel, day 4): 10.6 ± 0.3 s
- Paw withdrawal latency (PWL) ([4]; normal rats, 0.6 mg/d CBD gel, day 2): 9.9 ± 0.2 s
- Paw withdrawal latency (PWL) ([4]; normal rats, 3.1 mg/d CBD gel, day 2): 9.9 ± 0.3 s
- Paw withdrawal latency (PWL) ([4]; normal rats, 6.2 mg/d CBD gel, day 2): 10.1 ± 0.9 s
- Effect on PWL in normal rats ([4]; normal rats, any CBD dose (0.6, 3.1, 6.2 mg/d)): not affected; also recorded: no effect
- Distance traveled (normal (non-CFA) rats; 0.6 mg/d CBD gel, post-dose, p<0.05 vs pre-dose): 1757.1±299.2 cm
- Distance traveled (normal (non-CFA) rats; 0.6 mg/d group, pre-dose): 2245.5±367.4 cm
- Rearing events (normal (non-CFA) rats; 3.1 mg/d group, pre-dose): 284.0±31.1
- Rearing time (normal (non-CFA) rats; 3.1 mg/d group, pre-dose): 189.1±20.7
- Exploratory activity, six parameters (rearing events, rearing time, total beams broken, distance traveled, active time, resting time) (normal (non-CFA) rats; among dose groups and pre- vs post-dose, p>0.05, exception distance traveled at 0.6 mg/d): No significant (p>0.05) differences
- Plasma CBD concentration ([5]; topical gel 0.6 mg/d, four consecutive days): 3.8 ± 1.4 ng/mL
- Plasma CBD concentration ([5]; topical gel 3.1 mg/d): 17.5 ± 4.4 ng/mL
- Plasma CBD concentration ([5]; topical gel 6.2 mg/d): 33.3 ± 9.7 ng/mL
- Plasma CBD concentration ([5]; topical gel 62.3 mg/d (10% w/w gel), not in linear profile): 1,629.9±379.0 ng/mL
- Binding affinity for CB2 receptor (CB2 receptor): little binding affinity
- Therapeutic action on established CIA ([6]; administered systemically (ip and oral)): beneficial therapeutic action
- Optimal dose for arthritis suppression ([6]; i.p. (2.5, 5, 10, 20 mg/kg tested)): 5 mg/kg
- Optimal dose for arthritis suppression ([6]; oral (10, 25, 50 mg/kg tested)): 25 mg/kg
- Decrease in thermal and mechanical withdrawal latency [7]: 50%
- Effect on hyperalgesia (PWL) ([8]; mice, 5 and 7.5 mg/kg oral, by 6 h): eliminated hyperalgesia
- Effect on hyperalgesia (PWL) ([8]; mice, 10, 20 and 40 mg/kg oral, 3 h post carrageenan): elimination of hyperalgesia

SMILES: CCCCCc1cc(O)c2c(c1)OC(C)(C)[C@@H]1CCC(C)=C[C@@H]21 [THC, Δ^9-tetrahydrocannabinol]
- Side effects caused [9]: hypothermia and hypomobility
